Experimental data published in patent US20220046925A1, “METHOD OF CONTROLLING PESTS BY SEED TREATMENT APPLICATION OF A MESOIONIC COMPOUND OR MIXTURE THEREOF” (BASF SE, priority 2018, published 2022).
Like-named read-outs stand apart in the source and are kept apart here. Marks after values point to notes of the source that are not given here.

What was measured:
Format in all cases: in vivo
Myzus persicae = assay: Sugarbeet seed treatment against green peach aphid
Method: Sugarbeet seed treatment: Seeds were treated in according to desired rates. Seeds were planted (one per pot) at a depth of 1.5 cm in 3×3 in (58.0644 cm2) pots that were filled with RediEarth soil and moistened prior to planting. Pots were held in a completely randomized design in the greenhouse and automatically top watered and fertilized [NPK 16-4-20-3(Ca)-1(Mg)] daily (4 min, 4× a day) until infestation. A set of plants was infested 7, 14, 21 and 28 days after treatment (DAT). Thirty aphids were transferred individually to each plant with a paint brush. After infestation, plants were kept on a light cart at room temperature with continuous light and bottom watered until evaluation. Six days after infestation (DAI), the number of live aphids was recorded, and means were calculated for each treatment. Percent control was calculated as the percent reduction in live aphids relative to the solvent blank.

Elasmopalpus sp = assay: Soybean seed treatment against lesser corn stalkborer (cage)
Method: Soybean seed treatment: Soybean seeds were treated with Compound I-R-1. The treated seeds were sown inside an enclosed cage, in two lines at 29 seeds/cage. Thirty-five 3rd instar larvae of Elasmopalpus sp were introduced into each cage at six days after sowing. The number of dead and live plants were counted periodically.

Phyllotreta striolata = assay: Canola seed treatment against striped flea beetle; conditions: rate 400 (unit not given), 300 g ai/L formulation, cotyledon stage
Method: Canola seed treatment: Formulation was diluted in water to make appropriate concentration according to needs. Canola seeds with pre-coating inert ingredients were treated with diluted solution by vortex methods. Treated seeds were dried in ventilating chemical hood. After dry, three seeds were planted per pot (2×2 inch) at a depth of 1 cm, which were filled with Patio sand and watered prior to treatment and planting. The pots were arranged in a completely randomized design, kept in the greenhouse, and automatically top-watered and fertilized daily (NPK 16-4-20-3(Ca)-1(Mg)). At the cotyledon stage [˜7 days after treatment (DAT)], plants were thinned to 1 plant per pot. One set of plants was infested at the cotyledon stage and another set at the first true-leaf stage. Both cotyledons of a single plant were excised, and true leaves were sampled using a ⅝″ (1.59-cm) diameter leaf disc. Leaf samples were placed on a piece of 47-mm filter paper moistened with 0.225 mL distilled water in a 50-mm Petri dish. Five flea beetles were then infested into the petri dish. The dishes were held in an incubator at 27° C., 60% RH, and a 16L:8D light cycle. Five days after infestation (DAI), the numbers of live, moribund, and dead flea beetles were recorded, as well as % feeding damage (via visual estimate). […] Percent mortality was calculated for each treatment, with moribund insects classified as alive.

Frankliniella fusca [1] = assay: Peanut seed treatment against tobacco thrips (field)
Method: Peanut seed treatment: Field trials were laid out. Treated peanut seeds were sown in 8 sq m plots using 4 replications. Feeding damage was assessed at 28 and 35 days after treatment.

[2] = tested on: Frankliniella occidentalis (FRANOC); assay: Cotton seed treatment with mixtures against Frankliniella occidentalis (Colby synergy); conditions: 7DAI
Excerpt: (§1) When the observed combined control effect is greater than the expected combined control effect (E), then the combined effect is synergistic.
(§2) Sub-lethal rates were predetermined by rate rundown. Formulations were combined and diluted in water and applied to cotton seeds which were allowed to dry. Seeds were then planted and grown in a greenhouse. At the cotyledon stage, western flower thrips (Frankliniella occidentalis) adults were infested onto each plant and held under laboratory conditions. Replication was 5×. Seven and 14 days after infestation, percent damage was visually assessed, and means were calculated for each treatment. Percent control was calculated as the percent reduction in live aphids relative to the solvent blank (Sun-Shepard method).

Frankliniella fusca [3] = assay: Cotton seed treatment against tobacco thrips (field)
Method: Cotton seed treatment: Field studies were carried out against tobacco thrips using cotton seeds treated with 0.375 mg ai/seed of Compound I-R-1. Treated Seeds were sown in 30 sq m plots. There were 4 replications for each treatment. Feeding damage was assessed at 5 and 7 days after planting (DAP).

[4] = tested on: Leptinotarsa decimlineata; assay: Potato seed piece treatment against Colorado potato beetle
Method: 8. Potato—Colorado Potato Beetle (Leptinotarsa decimlineata) Potato seed piece treatment: Seed potatoes were treated by spraying. After application, potatoes were allowed to dry prior to planting. The plots were laid out in 6-meter rows with 4 replications. Feeding damage assessments were taken at 42 and 50 days after planting.

Rhopalosiphum padi = assay: Barley seed treatment against bird cherry oat aphid; conditions: 100 g ai/100 kg seed, first true leaf stage
Method: Barley seed treatment: Technical material was dissolved in DMSO. Twenty barely seeds were treated with a vortex method and planted in a pot (2×2 inch) filled with Rediearth soil. One seed was planted per pot and the pots were arranged in a completely randomized design, held in the greenhouse, and top-watered and fertilized daily. Four seedlings were taken from each cotyledon & true leaf treatment samples. DMSO solvent blank were used as positive and negative treatments, respectively. The true leaf stage was infested 14 days after planting (DAP). Ten bird cherry-oat aphids of mixed stages were transferred individually to each plant with a paint brush. Six replicates were set up for each treatment. After infestation, plants were kept on a light cart at room temperature and bottom watered until evaluated. The number of live aphids at 4 days after infestation (4DAI) was recorded, and means were calculated for each treatment. Percent control was calculated as the percent reduction in live aphids relative to the solvent blank.

[5] = tested on: Rhopalosiphum padi (RHOPPA); assay: Barley seed treatment with mixtures against Rhopalosiphum padi (Colby synergy); conditions: cotyledon stage, 4 days after infestation
Excerpt: as §1
as §2, with “barley” for “cotton”, “bird cherry-oat aphids (Rhopalosiphum padi) of mixed stages” for “western flower thrips (Frankliniella occidentalis) adults”, “6×. Four” for “5×. Seven and 14”, “the number of live aphids on each plant” for “percent damage”, “recorded,” for “visually assessed,”

Dichelops melacanthus = assay: Corn seed treatment against green belly stink bug (cage); conditions: for mortality at 30 g/ha: Dichelops melacanthus
Method: Corn seed treatment: Corn seeds were treated with Compound I-R-1. The treated seeds were sown inside an enclosed cage, at 16 seeds/cage. Twenty-four stinkbugs, were introduced into each cage. The number of dead and live stinkbugs were counted periodically.

SMILES: C[n+]1c([O-])c(-c2ccccc2)c(=O)n2c1SC[C@@H]2c1cnc(Cl)s1 (single isomer, unassigned) [Compound I-R-1]
- Mean % Population Reduction Relative to SB @ 6DAI, 7 DAP (Myzus persicae; sugar beet seed treatment, 80 g ai/1 kg seed, infested 7 DAP, 6DAI): 100%
- Mean % Population Reduction Relative to SB @ 6DAI, 14 DAP (Myzus persicae; sugar beet seed treatment, 80 g ai/1 kg seed, infested 14 DAP, 6DAI): ≥90%
- Mean % Population Reduction Relative to SB @ 6DAI, 21 DAP (Myzus persicae; sugar beet seed treatment, 80 g ai/1 kg seed, infested 21 DAP, 6DAI): ≥90%
- Mean % Population Reduction Relative to SB @ 6DAI, 28 DAP (Myzus persicae; sugar beet seed treatment, 80 g ai/1 kg seed, infested 28 DAP, 6DAI): ≥90%
- activity against green peach aphid by sugarbeet seed treatment (in words) (Myzus persicae; sugarbeet seed treatment): excellent activity
- activity as far as 4 weeks after plant (in words) (Myzus persicae; sugarbeet seed treatment, 4 weeks after plant): excellent activity
- efficacy against Elasmopalpus sp. in terms of plant protection (in words) (Elasmopalpus sp): good efficacy
- Number of dead plants/plot, A03 (Elasmopalpus sp; 50 g ai/ha, assessment A03): 1.50 a
- Number of dead plants/plot, A07 (Elasmopalpus sp; 50 g ai/ha, assessment A07): 4.50 ab
- Number of dead plants/plot, A14 (Elasmopalpus sp; 50 g ai/ha, assessment A14): 5.25 b
- Number of dead plants/plot, A21 (Elasmopalpus sp; 50 g ai/ha, assessment A21): 6.75 b
- Mean % feeding damage (5DAI, 13DAP) (Phyllotreta striolata; 5DAI, 13DAP): 19^b %
- Mean % Feeding Damage Reduction Relative to SB (Phyllotreta striolata; relative to solvent blank): 58%
- efficacy against F. fusca in terms of reduction in feeding damage (in words) (Frankliniella fusca [1]): good efficacy
- Feeding damage (%), A28 (Frankliniella fusca [1]; 0.68 mg ai/seed, field, 28 days after treatment): 13.0 b %
- Feeding damage (%), A35 (Frankliniella fusca [1]; 0.68 mg ai/seed, field, 35 days after treatment): 13.5 b %
- % activity (feeding damage reduction), solo application ([2]; use rate 0.375 (head: g ai/100 kg seeds)): 19%
- efficacy against F. fusca in terms of reduction in feeding damage (in words) (Frankliniella fusca [3]): excellent efficacy
- Feeding damage (%), 5 DAP (Frankliniella fusca [3]; 0.375 mg ai/seed, field, 5 DAP): 6.0 b %
- Feeding damage (%), 7 DAP (Frankliniella fusca [3]; 0.375 mg ai/seed, field, 7 DAP): 12.5 c %
- efficacy against L. decimlineata regarding reduction in feeding damage (in words) [4]: good efficacy
- Feeding damage, A42 ([4]; 400 g ai/ha, 42 days after planting): 3.0 b
- Feeding damage, A50 ([4]; 400 g ai/ha, 50 days after planting): 11.3 bc
- Mean % Population Reduction (18 DAP, 4DAI) (Rhopalosiphum padi): ≥90%
- % activity (population reduction), solo application ([5]; 5 g ai/100 kg seeds): 46%
- % activity (population reduction), solo application ([5]; 14 g ai/100 kg seeds): 59%
- mortality at 30 g/ha (Dichelops melacanthus; read-out: Percentage mortality (%), A01): 5.4%
- mortality at 30 g/ha (Dichelops melacanthus; read-out: Percentage mortality (%), A03): 24.6%
- mortality at 30 g/ha (Dichelops melacanthus; read-out: Percentage mortality (%), A07): 13%
- mortality at 30 g/ha (Dichelops melacanthus; read-out: Percentage mortality (%), A14): 35.3%
- mortality at 30 g/ha (Dichelops melacanthus; read-out: Percentage mortality (%), A21): 61.5%
- efficacy against green belly stink bug (in words) (Dichelops melacanthus; corn seed treatment): good efficacy

SMILES: CCN(C(=O)c1cnn(C(C)C(C)C)c1C)c1ccnnc1 (stereo not drawn) [Dimpropyridaz, 1-(1,2-dimethylpropyl)-N-ethyl-5-methyl-N-pyridazin-4-yl-pyrazole-4-carboxamide]
- % activity (population reduction), solo application ([5]; 18 g ai/100 kg seeds): 5%
- % activity (population reduction), solo application ([5]; 46 g ai/100 kg seeds): 11%

SMILES: O=C1C=C(N(Cc2ccc(Cl)nc2)CC(F)F)CO1 [Flupyradifurone]
- % activity (population reduction), solo application ([5]; 21 g ai/100 kg seeds): 36%

SMILES: CN1COCN(Cc2cnc(Cl)s2)/C1=N\[N+](=O)[O-] [thiamethoxam, reference compound]
- % activity (feeding damage reduction), solo application ([2]; use rate 0.300 (head: g ai/100 kg seeds)): 37%
